Experiment in all cases: growth of human tumour cells (NCI), 48 h
In assay [1] the test system is HCT-116.
In assay [2] the test system is K562.
Assay [3] has as its system SK-MEL-5.
Assay [4] relates to SN12C.
For assay [5], the system named is NCI-H23.
Assay [6] relates to TK-10.
Assay [7] has as its system NCI-H522.
The subject of assay [8] is SW-620.
Assay [9] relates to CAKI-1.
The subject of assay [10] is UO-31.
For assay [11], the system named is A498.
Assay [12] has as its system COLO 205.
Assay [13] relates to RPMI-8226.
The test system of assay [14] is SF-539.
Assay [15] has as its system NCI-H226.
The test system of assay [16] is ACHN.
The test system of assay [17] is HCC 2998.
Assay [18] concerns MDA-MB-231.
The test system of assay [19] is Hs-578T.
Assay [20] concerns NCI/ADR-RES.

SMILES strings stand for the structures.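 Cells were grown in 96-well plates and exposed to each compound for 48 hours at five concentrations; endpoints were interpolated linearly between bracketing concentrations, or set to the highest concentration if not reached. Abbreviation: GI50, concentration required for 50% inhibition of growth.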 Active and inactive are the calls of the source. Rule as the data show it: active = GI50 up to about 1.1 µM and inactive = higher.

In the case of `C/C(CN1C(=O)c2ccccc2C1=O)=N\NS(=O)(=O)c1ccc(Cl)cc1`, the GI50 in assay [1] was > 100 µM (inactive); in [2], > 100 µM (inactive); in [3] it was > 100 µM (inactive); in [4], 18.8 µM (inactive); in [5] it was > 100 µM (inactive); in [6] it was > 100 µM (inactive). Also, the GI50 in assay [7], in assay [8], in [9], in [10], in [11] and in assay [12] was > 100 µM (inactive) each time. Also, the GI50 in [13], in assay [14], in assay [15], in assay [16] and in assay [17] was > 100 µM (inactive) each time.

In the case of `O=C(Cc1csc(-c2nc(CC(=O)NNc3ccccc3)cs2)n1)NNc1ccccc1`, the GI50 was 77.1 µM (inactive) in [1]; 32.8 µM (inactive) in assay [2]; > 100 µM (inactive) in assay [3]; > 100 µM (inactive) in assay [4]; > 100 µM (inactive) in [5]; > 100 µM (inactive) in assay [6]. Also, the GI50 in assay [7] was 20.4 µM (inactive); in [9], > 100 µM (inactive); in assay [10], > 100 µM (inactive); in assay [11], > 100 µM (inactive); in assay [12], 25.9 µM (inactive); in [13], > 100 µM (inactive). The GI50 in assay [14] was > 100 µM (inactive); in assay [15], > 100 µM (inactive); in [16] it was > 100 µM (inactive); in [17] it was 43 µM (inactive).

Consider `CSc1c([S+](C)[O-])[nH]c2cc(Br)cc(Br)c12` (stereo unspecified), for which the GI50 in [1] was 17.6 µM (inactive); in assay [2], 24.2 µM (inactive); in [3] it was 18.3 µM (inactive); in assay [4], 16.7 µM (inactive); in assay [5] it was 19.3 µM (inactive); in [6], 27.8 µM (inactive). In addition, the GI50 in assay [7] was 23.3 µM (inactive); in assay [8], 32.8 µM (inactive); in assay [9], 25.1 µM (inactive); in assay [10], 23.4 µM (inactive); in [11] it was 22.1 µM (inactive); in assay [12], 18 µM (inactive). For the same compound, the GI50 in assay [13] is 18.8 µM (inactive); in assay [14], 22.4 µM (inactive); in assay [15] it was 27.4 µM (inactive); in [16] it was 24.5 µM (inactive); in assay [17], 18.3 µM (inactive).

Consider `Cc1cc(C)c(C(=O)c2nnc3ccccc3c2N)c(C)c1`, for which the GI50 in assay [1] was 10.3 µM (inactive); in assay [18], 16.9 µM (inactive); in [19] it was 24 µM (inactive); in [3], 13.5 µM (inactive); in assay [4], 15.3 µM (inactive); in assay [5] it was 22.1 µM (inactive). The GI50 was 26.7 µM (inactive) in assay [8]; 19.3 µM (inactive) in assay [9]; 26.9 µM (inactive) in assay [11]; 15.2 µM (inactive) in assay [12]; 24.9 µM (inactive) in assay [13]; 16.5 µM (inactive) in assay [15]. The GI50 in assay [16] was 23.1 µM (inactive); in assay [20] it was 24.3 µM (inactive).

Consider `O=C(NO)C12C3C4C1C1C2C3C41C(=O)NO` (stereo unspecified), for which the GI50 in [1], in assay [2], in assay [3], in assay [4], in assay [6] and in assay [7] was > 100 µM (inactive) in each case. Also, the GI50 in [9], in assay [10], in assay [11], in assay [12], in assay [13] and in assay [14] was > 100 µM (inactive) in each case. For the same compound, the GI50 in assay [15], in [16] and in [17] was > 100 µM (inactive) throughout.

As for `COc1cc2c(cc1OC)-c1cc(OC)c(OC)cc1[C@H]1CN3CCC[C@@]3(O)C=C21`, the GI50 in assay [1] was < 0.0001 µM (active); in assay [2] it was < 0.0001 µM (active); in assay [3], < 0.0001 µM (active); in assay [4], < 0.0001 µM (active); in assay [5], < 0.0001 µM (active); in assay [6], 0.000145 µM (active). Moreover, the GI50 in [7], in assay [8], in assay [9], in assay [10], in [11] and in assay [12] was < 0.0001 µM (active) in each case. The GI50 in assay [13] is < 0.0001 µM (active); in assay [14], < 0.0001 µM (active); in [15], < 0.0001 µM (active); in [16] it was < 0.0001 µM (active); in assay [17], 0.01 µM (active).

For `CN(C)CCCNC(=O)c1cc(NC(=O)c2cc(NS(=O)(=O)c3ccc4c(c3)C(=O)c3ccccc3C4=O)cn2C)cn1C`, the GI50 is > 100 µM (inactive) in assay [1]; 52.6 µM (inactive) in assay [2]; > 100 µM (inactive) in [18]; 29.2 µM (inactive) in assay [3]; > 100 µM (inactive) in assay [4]; > 100 µM (inactive) in [5]. Besides, the GI50 in [6] is > 100 µM (inactive); in assay [7], 93.5 µM (inactive); in assay [8] it was 94.8 µM (inactive); in assay [9], > 100 µM (inactive); in assay [10], > 100 µM (inactive); in assay [11] it was > 100 µM (inactive). The GI50 is 83.9 µM (inactive) in [12]; 21.5 µM (inactive) in [13]; > 100 µM (inactive) in [14]; > 100 µM (inactive) in assay [15]; > 100 µM (inactive) in [16]; > 100 µM (inactive) in assay [17]. Also, the GI50 in assay [20] is > 100 µM (inactive).

Turning to `CN1CN(C2OC(CO)C(O)C2O)c2nc(N)[nH]c(=O)c21` (stereo unspecified), the GI50 in assay [1], in [2], in [3], in [4], in [5] and in assay [6] was > 100 µM (inactive) in each case. Also, the GI50 in [7] was 5.15 µM (inactive); in assay [8], > 100 µM (inactive); in assay [9], > 100 µM (inactive); in assay [10], > 100 µM (inactive); in assay [11] it was > 100 µM (inactive); in assay [12], > 100 µM (inactive). For the same compound, the GI50 in assay [13], in assay [14], in assay [15], in [16] and in [17] was > 100 µM (inactive) in each case.

Consider `COC(=O)C1C2C=CC(C2)C1(C(=O)OC)[S+]([O-])CC12CCC(CC1O)C2(C)C` (stereo unspecified), for which the GI50 in assay [1] was > 100 µM (inactive); in assay [2], 39.4 µM (inactive); in assay [3], > 100 µM (inactive); in assay [4], > 100 µM (inactive); in [5], > 100 µM (inactive); in [6], > 100 µM (inactive). Besides, the GI50 in assay [7] was > 100 µM (inactive); in assay [8], 16 µM (inactive); in assay [9] it was > 100 µM (inactive); in [10] it was > 100 µM (inactive); in [11], > 100 µM (inactive); in [12] it was > 100 µM (inactive). For the same compound, the GI50 in [13] is 70.1 µM (inactive); in assay [14], > 100 µM (inactive); in assay [15], > 100 µM (inactive); in [16] it was > 100 µM (inactive); in [17] it was > 100 µM (inactive).

Take `CC(C)(C)C(=O)c1c(O)c2ccccc2c2ccccc2c1=O`: the GI50 in assay [1] is > 100 µM (inactive); in [18], > 100 µM (inactive); in [19], 85.7 µM (inactive); in assay [3], > 100 µM (inactive); in assay [4] it was > 100 µM (inactive); in [5], 41 µM (inactive). The GI50 in assay [6] was 97.5 µM (inactive); in assay [7], 23.7 µM (inactive); in assay [8], > 100 µM (inactive); in assay [9], > 100 µM (inactive); in [10] it was 33.2 µM (inactive); in [11], 50.6 µM (inactive). The GI50 was > 100 µM (inactive) in assay [12], > 100 µM (inactive) in [14], 49.4 µM (inactive) in [15] and > 100 µM (inactive) in assay [16].

Take `Clc1ccc(/C=C/c2nc(-c3ccc(Cl)cc3)cn3c2nc2ccccc23)cc1`: the GI50 in assay [1], in [2], in assay [18], in assay [19], in [3] and in [4] was > 100 µM (inactive) each time. For the same compound, the GI50 in assay [5], in assay [6], in [8], in assay [10], in assay [11] and in [12] was > 100 µM (inactive) throughout. For the same compound, the GI50 in assay [13], in assay [14], in assay [15], in assay [16], in assay [17] and in assay [20] was > 100 µM (inactive) each time.

`CC(=O)C(C(C)=O)=C1CCCC(O)O1` (stereo unspecified): the GI50 in [1] was > 100 µM (inactive); in [2], > 100 µM (inactive); in assay [18], > 100 µM (inactive); in assay [19] it was 47.4 µM (inactive); in assay [3], > 100 µM (inactive); in assay [4] it was > 100 µM (inactive). The GI50 in [5], in assay [6], in [8], in assay [10], in assay [11] and in assay [12] was > 100 µM (inactive) each time. In addition, the GI50 in assay [13], in assay [14], in [15], in [16], in assay [17] and in assay [20] was > 100 µM (inactive) each time.

The values are drawn from ChEMBL document CHEMBL1201862, “PubChem BioAssay data set” (2004).
